Experimental findings from article PMC6934184, “Selective DNA-PKcs inhibition extends the therapeutic index of localized radiotherapy and chemotherapy” (The Journal of Clinical Investigation, 2019) are described below.

This assay has as its target T1, FGFR4 (Homo sapiens, UniProt P22455).
T1 construct: purchased Thermo Fisher Scientific (Life Technologies) SelectScreen
Description: SelectScreen Z'LYTE. It is filed as biochemical. In outline: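 SelectScreen broad panel; activity (Z'LYTE, Adapta) plus binding formats. ATP: Km app for CSF1R Z'LYTE; 10 for CAMK1 Adapta. Readout = % per kinase.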

T1 sequence (P22455 22-802): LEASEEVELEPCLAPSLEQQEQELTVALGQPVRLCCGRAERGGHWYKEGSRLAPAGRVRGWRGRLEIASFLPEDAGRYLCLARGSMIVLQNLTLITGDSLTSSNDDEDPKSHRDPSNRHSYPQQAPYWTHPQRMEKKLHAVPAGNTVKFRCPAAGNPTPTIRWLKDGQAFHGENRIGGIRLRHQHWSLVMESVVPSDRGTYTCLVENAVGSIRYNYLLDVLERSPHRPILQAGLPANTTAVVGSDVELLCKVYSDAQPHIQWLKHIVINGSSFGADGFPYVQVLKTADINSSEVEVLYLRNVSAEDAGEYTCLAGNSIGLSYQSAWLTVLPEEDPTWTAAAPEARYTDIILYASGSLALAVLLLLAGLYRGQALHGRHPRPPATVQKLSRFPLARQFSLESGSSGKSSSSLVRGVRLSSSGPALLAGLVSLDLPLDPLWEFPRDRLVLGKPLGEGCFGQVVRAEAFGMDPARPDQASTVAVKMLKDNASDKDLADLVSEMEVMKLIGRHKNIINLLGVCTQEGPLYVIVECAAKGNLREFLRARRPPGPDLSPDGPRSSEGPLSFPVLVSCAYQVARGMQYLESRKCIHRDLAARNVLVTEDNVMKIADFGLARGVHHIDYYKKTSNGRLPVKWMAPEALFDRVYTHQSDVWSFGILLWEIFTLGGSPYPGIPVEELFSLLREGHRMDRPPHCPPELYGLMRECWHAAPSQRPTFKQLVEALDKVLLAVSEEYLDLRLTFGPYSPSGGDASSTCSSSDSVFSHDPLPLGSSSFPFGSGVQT

As for `CN(C(=O)CN1CCOCC1)c1ccc2sc3c(-c4cccc5c(=O)cc(N6CC7CCC(C6)O7)oc45)cccc3c2c1` [NU5455], the inhibition at 1 µM is -3.1%.

One may read the inhibition as the drop in the measured response relative to a control, in per cent.
